Test results: the pKa sets of Baltruschat and Czodrowski (2020)

Conditions: basic group

Structure (SMILES) | pKa
CC(=O)n1ccnc1 | 3.6
Nc1cc[nH+]c([O-])n1 | 4.61
CN(C)CCc1c[nH]c2ccc([O-])cc12 | 11.2
NCCCCCO | 10.5
COc1ccc2ncccc2c1 | 5.05
Nc1nc2ccccc2o1 | 3.73
C[C@@H]1N[C@@H]1C | 5.34
C1N2CN3CN1CN(C2)C3 | 4.95
CN(C)CCC/N=C(\c1ccccc1)c1ccccc1O | 9.3
c1ccc(C2=Nc3ccccc3CO2)cc1 | 3.48
C[NH2+]CCNCC[NH3+] | 4.64
N[C@H]1CCCC[C@@H]1[NH3+] | 6.71
CCCCCCCCCCCCN(CC(O)CC)CC(O)CC (centres undefined) | 5.6
CCOc1ccc2ccc(OCC)c(N3CCOCC3)c2c1N1CCOCC1 | 12.5
O=C([O-])C(CO)NCc1cc([N+](=O)[O-])ccc1[O-] (centres undefined) | 9.75
Nc1nsc2ccccc12 | 2.45
CCn1nc(-c2ccccc2)sc1=N | 6.1
Cc1cnc2c(c1)c(C)c(C)c1cc(C)cnc12 | 5.54
Cc1cc(N)ccn1 | 9.44
COc1ccc2c(c1O)CN(C)CCc1cc3c(cc1C(=O)C2)OCO3 | 9
CC(C)C[C@H]([NH3+])C(=O)N[C@@H](Cc1c[nH]cn1)C(=O)[O-] | 6.69
Cc1ccc2c(c1)NCC[NH2+]2 | 2.03
CC[NH+](CC)CC(C)Nc1c2ccc(Cl)cc2nc2ccc(OC)cc12 (centres undefined) | 7.15

Structure (SMILES) | pKa
CCOCCNc1ccccc1 | 4.04
CCOC(=O)CCCc1ccccn1 | 5.32
NNC(=O)c1ccccn1 | 2.86
ONc1ccccc1 | -0.32
Cc1nc(C(=O)[O-])ccc1O | 5.13
Nc1ccc(S(=O)(=O)Nc2cccnn2)cc1 | 1.3
CCNNC | 7.5
NCC(=O)C[NH3+] | 6.89
COc1ccc(CC(C)N)cc1 (centres undefined) | 9.53
CCCNC(C)C | 11
O=C([O-])CN(CC(=O)[O-])Cc1nc2ccccc2[nH]1 | 6.87
CCCN(C)N(C)CCC | 7.05
CC(C)(C)NCCCCCCNC(C)(C)C | 11
[NH3+]CCC(=O)NCCc1c[nH]cn1 | 6.84
CNC(=O)/C=C(\c1ccc2nc(N)n(C3CCCC3)c2c1)c1ccccc1F | 6.7
CN(C)CCNCCN(C)C | 9.59
C/C=C1/CN2[C@@H]3C[C@H]1C1[C@@H](O)[C@]4(C[C@@H]12)c1ccccc1N(C)[C@@H]34 (some centres undefined) | 8.5
CC/C(N)=N/O | 5.95
CCCNCC[S-] | 10.9
C=C(C)C(=O)OCCNC(C)C | 9.13
OC[C@@H]1O[C@H](n2ccc3c2ncn2ccnc32)[C@@H](O)[C@H]1O | 5.49
c1ccc(CSc2ccccn2)cc1 | 3.23
COc1ccc(-c2nc3ncncc3[nH]2)c(OC)c1 | 3.09

Structure (SMILES) | pKa
Cc1cc(N)ccc1-c1ccc(N)cc1C | 4.9
CC(=O)c1ccccn1 | -0.46
CC([Se-])CN (centres undefined) | 10.8
CCc1cccnc1 | 5.57
CNNC1CCN(C)CC1 | 8.7
CCOC(=O)N1CCN(C)CC1 | 7.31
CN(C)Cc1cccc(O)c1O | 8.01
CCCNCc1ccccc1 | 9.62
CCCCCCCCN(CC(C)O)CC(C)O (centres undefined) | 8.3
CN(C)c1ncnc2c1ncn2[C@H]1O[C@@H](CO)[C@H](O)[C@@H]1O | 3.65
CN(C)c1ccc([N+](=O)[O-])cc1 | 0.69
Cc1cnc2c(c1)c(C)cc1c(C)c(C)cnc12 | 6.07
N#CC(C#N)=NNc1ccc([N+](=O)[O-])cc1Cl | -0.62
C#CC(CC)(CC)N(C)C(C)C | 8.8
CC(O)CN(C)CC(C)O (centres undefined) | 8.7
CN(C)CCCNC(=O)/C=N/[O-] | 9.78
OCc1ccncc1 | 5.41
C[NH+](C)CCCCN1C=Nc2cccc3cccc1c23 | 5.3
CN1[C@H]2CC[C@@H]1[C@H](C(=O)[O-])[C@H](O)C2 | 11.1
CC(C)SCCN | 9.23
CC(Cc1ccccc1)NCCC#N (centres undefined) | 7.23
CC(C)(C)NC[C@H](O)COc1nsnc1N1CCOCC1 | 9.7
CCCP(=O)(CCC)CCC | 4.9

Structure (SMILES) | pKa
Cc1ccc2c(c1)cc(C)n2C | 0.5
Nc1ccc2c(c1)CCCC2 | 5.2
COCCNc1cccc(C)c1 | 4.29
CC(C)N/C=[NH+]/c1ccc(-c2cncn2C)cc1 | 6.51
Nc1cn[nH]c1 | 5.57
NCC(N)CN | 9.59
NCCC(=O)Oc1ccc([N+](=O)[O-])cc1 | 9.17
C#CCCN | 9.23
O=C(CN1CCOCC1)NCc1ccccc1 | 4.98
CC(CN(C)C)[NH+](C)C (centres undefined) | 5.4
Cc1ccc2c(c1)N1CC[NH+]2CC1 | 2.4
O=C(Nc1ccncc1)c1ccccc1 | 5.32
CCOCCn1c(N2CCCN(CCCCn3cc(C(=O)[O-])cn3)CC2)nc2ccccc21 | 8.5
Cc1cccc(C=O)n1 | 4.55
Cc1ccc(N)cc1C | 4.94
Nc1ccc2c(c1)-c1ccccc1C2 | 4.68
CC(=O)Nc1cccc2nc3ccccc3cc12 | 4.4
NCc1ccccc1 | 9.36
CNN(C)C | 6.64
CN(C)c1cc[nH+]cc1 | -7.78
